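Following 48 hours of exposure in 96-well plates, responses at five concentrations were used to interpolate endpoints linearly. GI50: concentration for 50% inhibition of growth. TGI denotes the concentration required for complete inhibition of growth.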
What was measured:
Assay in all cases: NCI anticancer screen, dose series, 48 h
ACHN renal = system: ACHN renal
HCT-15 colon = system: HCT-15 colon
HL-60(TB) leukemia = system: HL-60(TB) leukemia
K-562 leukemia = system: K-562 leukemia
MDA-MB-231 breast = system: MDA-MB-231 breast
NCI-H460 lung = system: NCI-H460 lung
OVCAR-8 ovarian = system: OVCAR-8 ovarian
SF-295 CNS = system: SF-295 CNS
SK-OV-3 ovarian = system: SK-OV-3 ovarian
SNB-19 CNS = system: SNB-19 CNS

Compound: O=C(CCCn1c2c(sc3ccccc32)c(=O)n2nnc(-c3ccccc3)c12)NCCc1cnc[nH]1
- GI50 (ACHN renal): 1.37 µM
- TGI (ACHN renal): 2.94 µM
- GI50 (HCT-15 colon): 0.505 µM
- TGI (HCT-15 colon): 2.14 µM
- GI50 (HL-60(TB) leukemia): 0.0724 µM
- TGI (HL-60(TB) leukemia): 3.21 µM
- GI50 (K-562 leukemia): 0.0456 µM
- GI50 (MDA-MB-231 breast): 1.91 µM
- TGI (MDA-MB-231 breast): 3.5 µM
- GI50 (NCI-H460 lung): 1.7 µM
- TGI (NCI-H460 lung): 3.11 µM
- TGI (OVCAR-8 ovarian): 2.99 µM
- GI50 (SF-295 CNS): 0.456 µM
- TGI (SF-295 CNS): 2.11 µM
- GI50 (SK-OV-3 ovarian): 2 µM
- TGI (SK-OV-3 ovarian): 6.04 µM
- GI50 (SNB-19 CNS): 2.97 µM
- TGI (SNB-19 CNS): 14.7 µM

Compound: ClCCCSSCCCCl
- TGI (ACHN renal): > 100 µM
- TGI (HCT-15 colon): 57.7 µM
- TGI (HL-60(TB) leukemia): 16 µM
- TGI (K-562 leukemia): > 100 µM
- TGI (MDA-MB-231 breast): > 80.2 µM
- TGI (NCI-H460 lung): > 100 µM
- TGI (OVCAR-8 ovarian): > 75.8 µM
- TGI (SF-295 CNS): > 100 µM
- TGI (SK-OV-3 ovarian): > 100 µM
- TGI (SNB-19 CNS): > 100 µM

Compound: COc1cc2c3c(n(CCCN4CCNCC4)c(=O)c2cc1OC)-c1cc2c(cc1C3=O)OCO2
- GI50 (ACHN renal): 0.0394 µM
- TGI (ACHN renal): 0.283 µM
- GI50 (HCT-15 colon): 0.296 µM
- TGI (HCT-15 colon): 5.14 µM
- GI50 (HL-60(TB) leukemia): 0.00886 µM
- TGI (HL-60(TB) leukemia): 0.746 µM
- GI50 (K-562 leukemia): 0.111 µM
- TGI (K-562 leukemia): 18.3 µM
- GI50 (MDA-MB-231 breast): 0.803 µM
- TGI (MDA-MB-231 breast): 2.23 µM
- GI50 (NCI-H460 lung): 0.00951 µM
- TGI (NCI-H460 lung): 2.07 µM
- GI50 (OVCAR-8 ovarian): 0.0803 µM
- TGI (OVCAR-8 ovarian): 1.06 µM
- GI50 (SF-295 CNS): 0.0851 µM
- TGI (SF-295 CNS): 1.93 µM
- GI50 (SK-OV-3 ovarian): 3.35 µM
- TGI (SK-OV-3 ovarian): 24.8 µM
- GI50 (SNB-19 CNS): 0.835 µM
- TGI (SNB-19 CNS): 12.4 µM

Compound: O=C1Nc2ccccc2/C1=C\c1c(-c2ccccc2)nc2sccn12
- GI50 (ACHN renal): 2.13 µM
- TGI (ACHN renal): 14.5 µM
- GI50 (HCT-15 colon): 1.08 µM
- TGI (HCT-15 colon): 8.39 µM
- GI50 (HL-60(TB) leukemia): 0.999 µM
- TGI (HL-60(TB) leukemia): 7.33 µM
- GI50 (K-562 leukemia): 0.624 µM
- TGI (K-562 leukemia): > 45.8 µM
- GI50 (MDA-MB-231 breast): 1.39 µM
- TGI (MDA-MB-231 breast): 6.18 µM
- GI50 (NCI-H460 lung): 3.15 µM
- TGI (NCI-H460 lung): 43.9 µM
- GI50 (OVCAR-8 ovarian): 4.58 µM
- TGI (OVCAR-8 ovarian): > 100 µM
- GI50 (SF-295 CNS): 0.797 µM
- TGI (SF-295 CNS): 3.24 µM
- GI50 (SK-OV-3 ovarian): 2.91 µM
- TGI (SK-OV-3 ovarian): 12.7 µM
- GI50 (SNB-19 CNS): 3.53 µM
- TGI (SNB-19 CNS): > 43.7 µM

Compound: CCn1c(-c2nonc2N)nc2c(C#CC(C)(C)O)ncc(OC3CCNCC3)c21
- GI50 (ACHN renal): > 25 µM
- TGI (ACHN renal): > 25 µM
- GI50 (HCT-15 colon): > 25 µM
- TGI (HCT-15 colon): > 25 µM
- GI50 (HL-60(TB) leukemia): 8.38 µM
- TGI (HL-60(TB) leukemia): 19 µM
- GI50 (K-562 leukemia): 11.1 µM
- TGI (K-562 leukemia): > 25 µM
- GI50 (MDA-MB-231 breast): 20 µM
- TGI (MDA-MB-231 breast): > 25 µM
- GI50 (NCI-H460 lung): 6.86 µM
- TGI (NCI-H460 lung): > 25 µM
- GI50 (OVCAR-8 ovarian): 12.9 µM
- TGI (OVCAR-8 ovarian): > 25 µM
- GI50 (SF-295 CNS): 9.09 µM
- TGI (SF-295 CNS): > 25 µM
- GI50 (SK-OV-3 ovarian): 3.86 µM
- TGI (SK-OV-3 ovarian): > 25 µM
- GI50 (SNB-19 CNS): 7.83 µM
- TGI (SNB-19 CNS): > 25 µM

Compound: COc1cc2c(NCCCCCO)ncnc2c(OC)c1OC
- TGI (ACHN renal): > 100 µM
- TGI (HCT-15 colon): > 100 µM
- TGI (HL-60(TB) leukemia): > 100 µM
- TGI (K-562 leukemia): > 100 µM
- TGI (MDA-MB-231 breast): > 100 µM
- TGI (NCI-H460 lung): > 100 µM
- TGI (OVCAR-8 ovarian): > 100 µM
- TGI (SF-295 CNS): > 100 µM
- TGI (SK-OV-3 ovarian): > 100 µM
- TGI (SNB-19 CNS): > 100 µM

Compound: Fc1cc(F)c(F)c(S)c1F
- TGI (ACHN renal): > 100 µM
- TGI (HCT-15 colon): > 100 µM
- TGI (HL-60(TB) leukemia): > 100 µM
- TGI (K-562 leukemia): > 100 µM
- TGI (MDA-MB-231 breast): 44.8 µM
- TGI (NCI-H460 lung): > 100 µM
- TGI (OVCAR-8 ovarian): > 100 µM
- TGI (SF-295 CNS): > 100 µM
- TGI (SK-OV-3 ovarian): > 100 µM
- TGI (SNB-19 CNS): > 100 µM

— PubChem BioAssay (NCI)
